Measurements as given in EP0404945A1 (priority 1989, dated 1990).
Where two headings read alike, the source gives them in different places.

What was measured:
Venturia inaequalis = assay type: cell-based
ascarid ovi = assay: animal or person; assay type: in vivo, pig.ascarid; details: read-out: Death of ascarid ovi, % Tests laboratory
Virus of hepatitis B = assay: microbe, parasite or virus in culture; details: 0.5 h, read-out: Death of viruses (%) at 30 minutes exposure, Virus of hepatitis B
Aspergillus niger = assay type: cell-based
Staphylococcus aureus = assay: microbe, parasite or virus in culture; assay type: cell-based; details: read-out: Efficiency of the preparation, % Staphylococcus aureus
Fusarium oxysporum = assay type: cell-based
Penicillium sporum = assay type: cell-based
Colibacillus = assay: microbe, parasite or virus in culture; assay type: cell-based; details: read-out: Efficiency of the preparation, % Colibacillus
Alternaria radicina = assay type: cell-based
Candida albicans = assay: microbe, parasite or virus in culture; assay type: cell-based
Candida tropicalis = assay: microbe, parasite or virus in culture; assay type: cell-based
Helminthosporum saturem = assay type: cell-based
[1] = test system: Infectant of poliomyelitis
houseflies = details: house fly, in vivo
[2] = in vivo; cited from earlier work

| SMILES | Mycelium growth inhibition, % to the control, Venturia inaequalis (Venturia inaequalis) [%] | killing at 3 % (ascarid ovi) [%] | killing at 1 % (Virus of hepatitis B) [%] | Mycelium growth inhibition, % to the control, Aspergillus niger (Aspergillus niger) [%] | killing at 0.5 % (Staphylococcus aureus) [%] | Mycelium growth inhibition, % to the control, Fusarium oxisporum (Fusarium oxysporum) [%] | Mycelium growth inhibition, % to the control, Penicillium sporum (Penicillium sporum) [%] | killing at 0.5 % (Colibacillus) [%] | Mycelium growth inhibition, % to the control, Alternaria radicina (Alternaria radicina) [%] | killing at 0.05 % (Candida albicans; 2 h, read-out: Death of test fungi, % to the control, Candida albicans 2 hrs) [%] | killing at 0.05 % (Candida albicans; 20 h, read-out: Death of test fungi, % to the control, Candida albicans 20 hrs) [%] | killing at 0.05 % (Candida tropicalis; 2 h, read-out: Death of test fungi, % to the control, Candida tropicalis 2 hrs) [%] | killing at 0.05 % (Candida tropicalis; 20 h, read-out: Death of test fungi, % to the control, Candida tropicalis 20 hrs) [%] | Mycelium growth inhibition, % to the control, Helminthosporum saturem (Helminthosporum saturem) [%] | Death of viruses (%) at 60 minutes exposure, Infectant of poliomyelitis [1] [%] | Death of flies, % Tests laboratory (houseflies) [%] | Death of flies, % after 48 hours (houseflies; 48 h) [%] | Death of flies, % after 72 hours (houseflies; 72 h) [%] | LD50 [2] |
| --- | --- | --- | --- | --- | --- | --- | --- | --- | --- | --- | --- | --- | --- | --- | --- | --- | --- | --- | --- |
| O=[N+]([O-])c1ccc(C(Cl)C(CCl)NP(=O)(O)O)cc1 (stereo not shown) [Example 3] | 98 | 100 | 100 | 100 | 100 | 68 | 100 | 100 | 80 | 100 | 100 | 99 | 100 | 100 | 80 | – | – | – | – |
| COP(=O)(OC)C(O)C(Cl)(Cl)Cl (stereo not shown) [Known insecticidal preparation, O,O-Dimethyl-(1-hydroxy-2,2,2-tri-chloroethyl)-phosphonate] | – | – | – | – | – | – | – | – | – | – | – | – | – | – | – | 90 | 81 | 84 | 225 - 1,200 mg/kg |
